Data reported in patent publication US9598463B2, “Mucin hypersecretion inhibitors and methods of use” (BIOMARCK PHARMACEUTICALS, LTD., priority 2005, dated 2017).
Where a SMILES comes first, the peptide text is derived from it. The star is where a group is joined. Myristoyl = CCCCCCCCCCCCCC(=O)*

Experiment: Qualitative solubility of test peptides in 0.5 N saline
Type: physicochemical
Conditions: pH 6.5, 20° C. (table title)
Experimental: Various test peptides (1 to 5 mg each) were weighed out accurately in individual 2 mL screw cap glass vials and aliquots of 25 μL of 0.5 N saline, pH 6.5, were added at 25° C. and ambient pressure. The solubility was evaluated visually. If the test peptide dissolves completely with the first aliquot of saline, its solubility was calculated and designated as more than the calculated amount. […] Similarly, if 1.7 mg of a test peptide fails to dissolve in 1.7 mL of 0.5 N saline, its solubility is stated as <1.0 mg/mL.

Q: Which solubility does the source give for Ac-GAQFSATAAK-OH [Ac-peptide 245] here?
A: > 100 mg/mL

Q: With Ac-GAAFSKTAAK-OH [Ac-peptide 243] as the compound, how does the solubility read?
A: > 50 mg/mL

Q: Which solubility does the source give for Ac-AAQFSKTAAK-OH [Ac-peptide 242] here?
A: > 100 mg/mL

Q: For “Ac-GKASQFAKTA-OH [Ac-peptide 252, reference compound]”, which solubility is on record?
A: < 30 mg/mL

Q: With Ac-GAQFAKTAAK-OH [Ac-peptide 244] as the compound, how does the solubility read?
A: > 120 mg/mL

Q: Which solubility does the source give for Ac-GAQASKTAAK-OH [Ac-peptide 236] here?
A: > 80 mg/mL

Q: With Ac-QFSKTAAKGE-NH2 [Ac-peptide 108-NH2] as the compound, how does the solubility read?
A: > 150 mg/mL

Q: For Ac-GAQFSKTA-OH [Ac-peptide 137], which solubility is on record?
A: > 200 mg/mL

Q: For CCCCCCCCCCCCCC(=O)N[C@@H](C)C(=O)N[C@@H](C)C(=O)N[C@@H](CCCCN)C(=O)NCC(=O)N[C@@H](CCC(=O)O)C(=O)N[C@@H](C)C(=O)O [myr-peptide 179] (Myristoyl-AAKGEA-OH), which solubility is on record?
A: < 1 mg/mL

Q: For Ac-SKTAAKGE-NH2 [Ac-peptide 141-NH2], which solubility is on record?
A: > 200 mg/mL

Q: Which solubility does the source give for Ac-GAQFSKTAAKGE-OH [Ac-peptide 79] here?
A: > 100 mg/mL

Q: With “Ac-KAATKSFQAG-OH [Ac-peptide 246, reference compound]” as the compound, how does the solubility read?
A: < 30 mg/mL

Q: Which solubility does the source give for Ac-AQFSKTAAKGE-NH2 [Ac-peptide 93-NH2] here?
A: > 90 mg/mL

Q: For CCCCCCCCCCCCCC(=O)NCC(=O)N[C@@H](C)C(=O)N[C@@H](CCC(=O)O)C(=O)N[C@@H](Cc1ccccc1)C(=O)N[C@@H](CO)C(=O)N[C@@H](CCCCN)C(=O)N[C@H](C(=O)N[C@@H](C)C(=O)N[C@@H](C)C(=O)N[C@@H](CCCCN)C(=O)NCC(=O)N[C@@H](CCC(=O)O)C(=O)O)[C@@H](C)O [myr-peptide 238] (Myristoyl-GAEFSKTAAKGE-OH), which solubility is on record?
A: > 2 mg/mL

Q: With “Ac-GAQFSKTAAKGEAAAERPGEAAVA-OH [Ac-peptide 1]” as the compound, how does the solubility read?
A: > 125 mg/mL

Q: For CCCCCCCCCCCCCC(=O)NCC(=O)N[C@@H](C)C(=O)N[C@@H](CCC(N)=O)C(=O)N[C@@H](Cc1ccccc1)C(=O)N[C@@H](CO)C(=O)N[C@@H](CCCCN)C(=O)N[C@H](C(=O)N[C@@H](C)C(=O)N[C@@H](C)C(=O)N[C@@H](CCCCN)C(=O)NCC(=O)N[C@@H](CCC(=O)O)C(N)=O)[C@@H](C)O [myr-peptide 79-NH2] (Myristoyl-GAQFSKTAAKGE-NH2), which solubility is on record?
A: < 1 mg/mL

Q: For CCCCCCCCCCCCCC(=O)NCC(=O)N[C@@H](C)C(=O)N[C@@H](CCC(N)=O)C(=O)N[C@@H](Cc1ccccc1)C(=O)N[C@@H](CO)C(=O)N[C@@H](CCCCN)C(=O)N[C@H](C(=O)N[C@@H](C)C(=O)N[C@@H](C)C(=O)O)[C@@H](C)O [myr-peptide 121] (Myristoyl-GAQFSKTAA-OH), which solubility is on record?
A: < 1 mg/mL

Q: Which solubility does the source give for Ac-GAQFSKTAAA-OH [Ac-peptide 248] here?
A: > 100 mg/mL

Q: With Ac-FSKTAAKGE-NH2 [Ac-peptide 124-NH2] as the compound, how does the solubility read?
A: > 100 mg/mL

Q: For Ac-KTAAKGE-NH2 [Ac-peptide 159-NH2], which solubility is on record?
A: > 200 mg/mL
